According to PMC7179439, “Synthesis and Structure-Activity Relationship Studies of Hydrazide-Hydrazones as Inhibitors of Laccase from Trametes versicolor” (Molecules, 2020):
Several values for one entry are separate records, joined by “and”; a condition that tells them apart may be missing. Equal values may be shown once. Read-outs that look alike come from different tables or passages of the source.

Tests used:
[1] = molecular target: laccase from Trametes versicolor; assay: Laccase enzyme inhibition assay with syringaldazine as substrate; assay type: biochemical; parameters: key to The type of inhibition: a: competitive; b: uncompetitive; c: not determined; d: non-competitive; conditions: for Ki: 25 °C, pH 5.3, syringaldazine substrate, 6.25% v/v organic co-solvent; for The type of inhibition / type of inhibition: Lineweaver-Burk transformation
Experimental: The activity of laccase was determined using the procedure described by Leonowicz and Grzywnowicz. Basically, a standard reaction mixture contained the enzyme in McIlvaine buffer (1.5 mL, pH 5.3) in the presence or absence of tested compounds (0.1 mL) and substrate – syringaldazine (0.1 mL). Two water-miscible media were tested as suitable co-solvents for hydrazide-hydrazones which are poorly soluble in water. For that purpose, the stability of laccase (40 nM, McIlvaine buffer, pH 5.3) in methanol and DMSO (6.25% v/v) at 25 °C was investigated (see Supplementary Material). The samples containing the enzyme, with a volumetric buffer–co-solvent ratio of 15:1, were withdrawn in different time intervals for 1500 min. A reaction system contained the 1.6 mL of the collected sample and 0.1 mL of syringaldazine (5.9 µM). Laccase activity was determined spectrophotometrically (UV-VIS 1800, Shimadzu, Reinach, Switzerland) by monitoring the changes in absorbance at 525 nm resulted from oxidation of the substrate syringaldazine with an extinction coefficient ε0 = 65000 M^−1·cm^−1 [99]. Kinetic parameters, Km and k3 were determined for two protein concentrations (20 and 40 nM) and with the nine concentrations of syringaldazine (0.59 to 20 µM), using the Michaelis-Menten model, Equation (1):V = Vmax · CS/(Km + CS), k3 = Vmax/CE(1) where Km [µM], k3 [min^–1] – kinetic constants, Vmax – maximal velocity [µM·min^–1], CS – substrate concentration [µM], CE – enzyme concentration [µM].
The parameters of the function were estimated using the nonlinear least square method in Matlab (The Mathworks, R2019a Version 9.6, academic licence). The method was used simultaneously for datasets obtain for different enzyme concertation. The common minimum of error function was found for all considered datasets resulting in one common estimate of each model parameter. The goodness of fit was assessed using the coefficient of determination (R^2); the sum of squared errors (SSE) and root mean squared error (RMSE). The 25 hydrazide-hydrazones, 4-hydroxybenzoic acid (control, 4-HBA), 4-hydroxybenzohydrazide (4a – 4-HBAH), and sodium azide (control) were tested against laccase in the standard reaction mixture. Prior to the substrate addition, the laccase and tested compound were pre-incubated for 10 min at 25 °C. At least three inhibitor concentrations were used in each experiment. All measurements were performed in triplicate. To determine the type of inhibition Lineweaver–Burk transformation was used applying the following equations for competitive (2), uncompetitive (3) and non-competitive model (4). The parameters of these equations were estimated using the linear least square method. 1/V = Km/Vmax · (1 + Ci/Ki) · 1/CS + 1/Vmax(2) 1/V = Km/Vmax · 1/CS + 1/Vmax · (1 + Ci/Ki)(3) 1/V = Km/Vmax · (1 + Ci/Ki) · 1/CS + 1/Vmax · (1 + Ci/Ki)(4) where Km [µM]—Michaelis-Menten constant, Vmax—maximal velocity [µM·min^–1], Ki—inhibition constant [µM], CS—substrate concentration [µM], Ci—inhibitor concentration [µM].

[2] = test system: laccase from Pleurotus eryngii; conditions: cited from earlier work; for Ki: ABTS as substrate, mixed type of inhibition ref 85
[3] = molecular target: laccase from Pleurotus ostreatus; conditions: ABTS as substrate ref 86; cited from earlier work

| Compound | melting point | Ki [1] [µM] | The type of inhibition [1] | type of inhibition [1] | also measured |
| --- | --- | --- | --- | --- | --- |
| COc1cccc(/C=N/NC(=O)c2ccc(O)cc2)c1 (hydrate or solvate) [1i, 4-Hydroxy-N’-[(E)-(3-methoxyphenyl)methylidene]benzohydrazide] | 210 to 212 °C |  |  |  |  |
| O=C(N/N=C/c1cccc(-c2ccccc2)c1O)c1ccc(O)cc1 (hydrate or solvate) [2a, 4-Hydroxy-N’-[(E)-(2-hydroxy-3-phenyl-phenyl)methylidene]benzohydrazide monomethanolate] | 215 to 218 °C |  |  |  |  |
| O=C(N/N=C/c1ccccc1)c1ccc(O)cc1 [1a, 4-Hydroxy-N’-[(E)-benzylidene]benzohydrazide] |  | 1470 ± 58 | a |  |  |
| O=C(N/N=C/CCc1ccccc1)c1ccc(O)cc1 [1b, 4-Hydroxy-N’-[(E)-3-phenylpropylidene]benzohydrazide] | 243.5 to 244 °C | 1920 ± 163 | b |  |  |
| Cc1ccc(/C=N/NC(=O)c2ccc(O)cc2)cc1 [1c, 4-Hydroxy-N’-[(E)-(4-methylphenyl)methylidene]benzohydrazide monomethanolate] |  | 251 ± 26 | a | competitive |  |
| O=C(N/N=C/c1ccccc1S(=O)(=O)[O-])c1ccc(O)cc1.[Na+] [1d, Sodium 2-{(E)-[2-(4-hydroxybenzoyl)hydrazinylidene]methyl}benzenesulfonate] | 251 °C (dec.) | ≥ 2400 |  |  |  |
| O=C(N/N=C/c1ccccc1O)c1ccc(O)cc1 [1e, 4-Hydroxy-N’-[(E)-(2-hydroxyphenyl)methylidene]benzohydrazide] |  | 674 ± 10 | a | competitive |  |
| O.O=C(N/N=C/c1cccc(O)c1)c1ccc(O)cc1 [1f, 4-Hydroxy-N’-[(E)-(3-hydroxyphenyl)methylidene]benzohydrazide monohydrate] |  | 2400 ± 334 | a |  |  |
| O=C(N/N=C/c1ccc(O)cc1)c1ccc(O)cc1 [1g, 4-Hydroxy-N’-[(E)-(4-hydroxyphenyl)methylidene]benzohydrazide] |  | 638 ± 35 | b |  |  |
| COc1ccccc1/C=N/NC(=O)c1ccc(O)cc1 [1h, 4-Hydroxy-N’-[(E)-(2-methoxyphenyl)methylidene]benzohydrazide] |  | 1060 ± 18 | a |  |  |
| COc1cccc(/C=N/NC(=O)c2ccc(O)cc2)c1 [1i, 4-Hydroxy-N’-[(E)-(3-methoxyphenyl)methylidene]benzohydrazide] |  | 416 ± 1.5 | a | competitive |  |
| O=C(N/N=C/c1cccc(-c2ccccc2)c1O)c1ccc(O)cc1 [2a, 4-Hydroxy-N’-[(E)-(2-hydroxy-3-phenyl-phenyl)methylidene]benzohydrazide monomethanolate] |  | 25.3 ± 6.9 | a | competitive |  |
| CC(C)(C)c1cccc(/C=N/NC(=O)c2ccc(O)cc2)c1O [2b, 4-Hydroxy-N’-[(E)-(3-tert-butyl-2-hydroxyphenyl)methylidene]benzohydrazide] | 240 to 242 °C | 24 ± 5.9 | a | competitive |  |
| O=C(N/N=C/c1ccc(O)cc1O)c1ccc(O)cc1 [2c, 4-Hydroxy-N’-[(E)-(2,4-dihydroxyphenyl)methylidene]benzohydrazide] | 294 °C (dec.) | 939 ± 30 | b | uncompetitive | inhibitory potency towards laccase [1]: practically inactive |
| O=C(N/N=C/c1cc(Br)ccc1O)c1ccc(O)cc1 [2d, 4-Hydroxy-N’-[(E)-(5-bromo-2-hydroxyphenyl)methylidene]benzohydrazide] | 276 to 278 °C | ≥ 1000 |  |  |  |
| COc1cccc(O)c1/C=N/NC(=O)c1ccc(O)cc1 [2e, 4-Hydroxy-N’-[(E)-(6-methoxy-2-hydroxyphenyl)methylidene]benzohydrazide] | 256.5 to 257.5 °C | ≥ 1000 |  |  |  |
| COc1cccc(OC)c1/C=N/NC(=O)c1ccc(O)cc1 [2f, 4-Hydroxy-N’-[(E)-(2,6-dimethoxyphenyl)methylidene]benzohydrazide] | 214.5 to 216 °C | ≥ 1000 |  |  | inhibitory potency towards laccase [1]: practically inactive |
| COc1cc(/C=N/NC(=O)c2ccc(O)cc2)ccc1O [2g, 4-Hydroxy-N’-[(E)-(4-hydroxy-3-methoxyphenyl)methylidene]benzohydrazide] | 218.5 to 220 °C | 251 ± 38 | a | competitive |  |
| COc1ccc(C(=O)N/N=C/c2cccc(-c3ccccc3)c2O)cc1 [2h, 4-Methoxy-N’-[(E)-2-hydroxy-3-phenyl-benzylidene]benzohydrazide] | 240 to 242.5 °C | ≥ 1000 |  |  |  |
| Cc1cc(/C=N/NC(=O)c2ccc(O)cc2)c(O)c(CO)c1 [3a, 4-Hydroxy-N’-[(E)-2-hydroxy-3-hydroxymethyl-5-methyl-benzylidene]benzohydrazide] | 229 to 230 °C | ≥ 1000 |  |  |  |
| Cc1cc(CO)cc(/C=N/NC(=O)c2ccc(O)cc2)c1O [3b, 4-Hydroxy-N’-[(E)-(5-hydroxymethyl-3-methyl-2-hydroxyphenyl)methylidene]benzohydrazide] | 266 °C (dec.) | ≥ 1000 |  |  |  |
| CC(C)(C)c1cc(/C=N/NC(=O)c2ccc(O)cc2)c(O)c(C(C)(C)C)c1 [3c, 4-Hydroxy-N’-[(E)-(3,5-di-tert-butyl-2-hydroxyphenyl)methylidene]benzohydrazide] | 274.5 to 275.5 °C | 17.9 ± 1.3 | b |  |  |
| Cc1cc(/C=N/NC(=O)c2ccc(O)cc2)c(O)c(C(C)(C)C)c1 [3d, 4-Hydroxy-N’-[(E)-3-tert-butyl-2-hydroxy-5-methylbenzylidene]benzohydrazide] | 261 to 263 °C and 261 to 262 °C | 26.4 ± 3.4 | a | competitive |  |
| Cc1ccc(C(C)C)c(O)c1/C=N/NC(=O)c1ccc(O)cc1 [3e, 4-Hydroxy-N’-[(E)-(2-hydroxy-3-isopropyl-6-methylphenyl)methylidene]benzohydrazide] | 258.5 to 260.5 °C | ≥ 1000 |  |  |  |
| COc1cc(O)c(/C=N/NC(=O)c2ccc(O)cc2)c(OC)c1 [3f, 4-Hydroxy-N’-[(E)-(2-hydroxy-4,6-dimethoxyphenyl)methylidene]benzohydrazide] | 231.5 to 234.5 °C | ≥ 1000 |  |  |  |
| Cc1cc(/C=N/NC(=O)c2cccc(O)c2)c(O)c(C(C)(C)C)c1 [3g, 3-Hydroxy-N’-[(E)-(3-tert-butyl-2-hydroxy-5-methylphenyl)methylidene]benzohydrazide] | 240 to 242.5 °C | 32 ± 8 | d | non-competitive |  |
| O=C(O)c1ccc(O)cc1 [4-HBA, 4-hydroxybenzoic acid, reference compound] |  | ≥ 2400 |  |  | inhibitory potency towards laccase [1]: no inhibitory potency |
| COc1ccc(C(=O)NN)cc1 [4b, reference compound] |  | ≥ 2400 |  |  | inhibitory potency towards laccase [1]: no inhibitory potency |
| [N-]=[N+]=[N-].[Na+] [NaN3, sodium azide] |  | 2.72 ± 0.3 | d | non-competitive | type of inhibition ([2]; ABTS as substrate ref 85): mixed type of inhibition; Ki ([2]; read-out: Kic): 17.6 µM; Ki ([2]; read-out: Kiu): 10.6 µM; Ki [3]: 16.5 µM; type of inhibition [3]: non-competitive |
